Experimental data taken from PMC8774648, “Effects of Baicalein and Chrysin on the Structure and Functional Properties of β-Lactoglobulin” (Foods, 2022).
Read-outs that look alike come from different tables or passages of the source. Marks after values point to notes of the source that are not given here.

What was measured:
[1] = biological target: T1, β-lactoglobulin (BLG) (Bos taurus, UniProt P02754); experiment: Intrinsic fluorescence quenching of BLG by Bai/Chr (Stern–Volmer and double logarithmic equations); format: binding; settings: for Ksv (Stern–Volmer quenching constant) / Kd: pH 6.8; for BLG fluorescence quenching: after 10 times titration, c(BLG) = 20 µM
T1 construct: purchased Sigma–Aldrich Co. (St. Louis, MO, USA)
T1 sequence (P02754 17-178): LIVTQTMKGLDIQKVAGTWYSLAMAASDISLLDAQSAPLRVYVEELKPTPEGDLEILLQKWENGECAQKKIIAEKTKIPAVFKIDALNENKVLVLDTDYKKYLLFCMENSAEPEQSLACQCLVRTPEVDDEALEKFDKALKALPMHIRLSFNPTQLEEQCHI
Experimental: Intrinsic fluorescence spectroscopic test was measured on a F–7000 spectrophotometer (Hitachi, Japan) equipped with temperature controller according to the method described in the previous study. Briefly, 3 mL solution of BLG (20.0 µM) was titrated by continuously adding different amounts of Bai or Chr (0–20.0 µM). The fluorescence spectra were recorded at different temperatures (298 K, 304 K, and 310 K) with the excitation wavelength of 280 nm and the excitation and emission slit set at 2.5 nm. Moreover, synchronous fluorescence spectra were conducted by setting the wavelength intervals (λem–λex) at 15 nm and 60 nm, respectively. The 3D fluorescence spectra (molar ratios of BLG to Bai/Chr were 1:0 and 1:1) were recorded at excitation and emission wavelength range of 200−600 nm. All the fluorescence values were corrected to eliminate the internal filtering effect according to the previous method, and were used to evaluate the quenching mechanism of Bai/Chr binding to BLG by using the following equation [21]:(1) F0/F=1+Kqτ0[Q]=1+KSV[Q] where F and F0 are the fluorescence intensities of fluorophore with and without quencher; Ksv denotes the Stern–Volmer quenching constant; Kq is the quenching rate constant (Kq = Ksv/τ0), and τ0 is the average lifetime of the biomolecule in the absence of a quencher (τ0 = 10^−8 s); [Q] represents the experimental concentration of Bai/Chr.
For static fluorescence quenching mechanism, the binding constant (Ka) and the number of binding sites (n) could be determined by the following equation [22]:(2) logF0−F/F=nlogKa−nlog1/[Qt]−(F0−F)[Pt]/F0 where [Qt] and [Pt] are the concentrations of Bai/Chr and BLG, respectively.

[2] = biological target: T1, β-lactoglobulin (BLG); experiment: Thermodynamic parameters of Bai/Chr–BLG binding (Van't Hoff equation); settings: for ΔH° (enthalpy change) / ΔS° (entropy change): from Ka at 298, 304 and 310 K
Experimental: In order to determine the primary forces between BLG and Bai/Chr, thermodynamic parameters were calculated using the following equations [23]:(3) logKa=−ΔH°/2.303RT+ΔS°/2.303R (4) ΔG°=ΔH°−TΔS° where R and T represent gas constant (8.314 J mol^−1 K^−1) and temperature (298, 304, and 310 K), respectively. Enthalpy change (ΔH°) and entropy change (ΔS°) of interaction between ligands and biomolecules are the main criteria for evaluating acting force, and free energy (ΔG°) is the main criteria for estimating the spontaneity of interaction.

[3] = biological target: T1, β-lactoglobulin (BLG); experiment: Protein surface hydrophobicity (PSH) of BLG with ANS probe
Experimental: PSH of BLG in the presence or absence of Bai or Chr was determined using ANS as a fluorescent probe. In the BLG solution (20.0 µM) alone or Bai/Chr–BLG mixture the ANS solution (5 mM) was continuously added until the fluorescence intensity of the mixture remained constant. The fluorescence intensity of the sample was recorded in the wavelength range of 400–600 nm upon 380 nm excitation. The PSH values were calculated by the following equations [26]:(5) [ANS]bound=F/B (6) [ANS]free=[ANS]total−[ANS]bound (7) F/[ANS]free=−F/Kdapp−Fmax/Kdapp (8) PSH=Fmax/[BLG]Kdapp where [ANS]free and [ANS]bound are the concentration of free and bound ANS, respectively. Kdapp is the apparent dissociation constant of ANS, Fmax is the maximum fluorescence intensity at saturating ANS concentration and B is the proportionality coefficient.

[4] = biological target: T1, β-lactoglobulin (BLG); experiment: Foaming ability and foaming stability of BLG; settings: for increase of foaming stability (FS) of BLG: compared with BLG alone, molar ratio of BLG to Bai/Chr 10:1; for increase of foaming ability (FA) of BLG: compared with FA of free BLG (25.2%), molar ratios of BLG to Bai/Chr changed from 40:1 to 10:1
Experimental: Foaming ability (FA) and foaming stability (FS) were measured as described by Wang et al. with some modifications. A certain amount of BLG solution (1.0 mg mL^−1) was added to a 100 mL cylinder, and Bai or Chr was added to form solutions with different ratios of BLG to Bai or Chr (40:1, 30:1, 20:1, 10:1). The initial height H0 of the foam was recorded. The foam was then sheared at 10,000 rpm in a high-speed dispersion machine for 1 min and the height of the foam was recorded as H1. The height of the foam was recorded as H2 30 min later. The FA (%) and FS (%) were calculated according to the following equations:(9) FA (%)=H1−H0/H0×100 (10) FS (%)=H2−H0/H1−H0×100

[5] = biological target: T1, β-lactoglobulin (BLG); experiment: Emulsifying ability and emulsifying stability of BLG; settings: for effect on emulsifying stability (ES) of BLG: BLG to Bai/Chr 40:1 to 10:1; for effect on emulsifying ability (EA) of BLG: with the increase of Bai or Chr concentration (BLG to Bai/Chr 40:1 to 10:1)
Experimental: Emulsifying ability (EA) and emulsifying stability (ES) were investigated by the method of Xiong et al. with slight modification. BLG solution (1 mg mL^−1) was added to Bai/Chr to form the solutions with different ratios of BLG to Bai/Chr (40:1, 30:1, 20:1, 10:1), and then soybean oil was added to form BLG solution containing 10% (v/v) oil. The emulsion was fully dispersed for 2 min at a rate of 7000 r min^−1 and repeated for three times. At 0 and 10 min, 30 µL of emulsion was extracted from the bottom of the sample and immediately added to 3 mL of 0.1% SDS solution. The absorbance of the sample was measured at 500 nm and recorded as A0 and A10, respectively. The EA (m^2 g^−1) and ES (min) were calculated according to the following equations:(11) EA (m^2 g^−1)=2×2.303/c×Φ×L×10^4×A0×D (12) ES (min)=A0/A0−A10×10 where c is the weight of the BLG per unit volume (g mL^−1), Φ is the volume fraction of the oil phase, L is the length of light path, and D is the dilution factor, D = 100.

[6] = general statement for the three temperatures
[7] = molar ratio 1:1, versus BLG alone
[8] = molar ratio 2:1, versus BLG alone

Row | Compound | n (number of binding sites) ([1]; T = 298 K) | Ksv (Stern–Volmer quenching constant) ([1]; T = 298 K) | n (number of binding sites) ([1]; T = 304 K) | Ksv (Stern–Volmer quenching constant) ([1]; T = 304 K) | n (number of binding sites) ([1]; T = 310 K) | Ksv (Stern–Volmer quenching constant) ([1]; T = 310 K) | BLG fluorescence quenching ([1]; 298 K) | n (number of binding sites) [1, 6] | ΔG° (free energy) ([2]; T = 298 K) | ΔG° (free energy) ([2]; T = 304 K) | ΔG° (free energy) ([2]; T = 310 K) | ΔH° (enthalpy change) [2] | ΔS° (entropy change) [2] | F max (maximum fluorescence intensity at saturating ANS) ([3]; molar ratio 1:1) | PSH (protein surface hydrophobicity) ([3]; molar ratio 1:1) | Reduction Rate of PSH [3, 7] | F max (maximum fluorescence intensity at saturating ANS) ([3]; molar ratio 2:1) | PSH (protein surface hydrophobicity) ([3]; molar ratio 2:1) | Reduction Rate of PSH [3, 8] | increase of foaming stability (FS) of BLG [4] | other results
1 | O=c1cc(-c2ccccc2)oc2cc(O)c(O)c(O)c12 [Bai, baicalein] | 1.03 ± 0.03 | 5.75 ± 0.01 ^a ×10^4 L mol^−1 | 1.23 ± 0.02 | 4.76 ± 0.03 ^b ×10^4 L mol^−1 | 1.31 ± 0.03 | 4.47 ± 0.06 ^c ×10^4 L mol^−1 | 63.2% | approximately 1 | -7.421 kcal/mol | -7.543 kcal/mol | -7.665 kcal/mol | -1.34 kcal/mol | 85.44 J mol^−1 K^−1 | 154.31 ± 3.09 ^ab | 260.66 ± 5.21 ^b | 20.87 ± 0.42 ^d % | 120.27 ± 2.41 ^c | 200.45 ± 4.01 ^d | 39.15 ± 0.78 ^c % | 80.64% | Kd ([1]; T = 298 K, read-out: Ka (binding constant) (converted)): 3.6 µM; Kd ([1]; T = 304 K, read-out: Ka (binding constant) (converted)): 3.75 µM; Kd ([1]; T = 310 K, read-out: Ka (binding constant) (converted)): 3.92 µM; increase of foaming ability (FA) of BLG [4]: 18.08%; effect on emulsifying stability (ES) of BLG [5]: promoted the enhancement of ES; effect on emulsifying ability (EA) of BLG [5]: slightly improved
2 | O=c1cc(-c2ccccc2)oc2cc(O)cc(O)c12 [Chr, chrysin] | 1.45 ± 0.01 | 3.10 ± 0.04 ^d ×10^4 L mol^−1 | 1.01 ± 0.02 | 2.94 ± 0.06 ^e ×10^4 L mol^−1 | 1.29 ± 0.01 | 2.59 ± 0.04 ^f ×10^4 L mol^−1 | 59.0% | approximately 1 | -7.268 kcal/mol | -7.443 kcal/mol | -7.62 kcal/mol | 1.48 kcal/mol | 122.18 J mol^−1 K^−1 | 151.76 ± 3.04 ^b | 252.82 ± 5.07 ^c | 23.25 ± 0.47 ^b % | 110.17 ± 2.20 ^d | 193.69 ± 3.87 ^e | 41.20 ± 0.82 ^a % | 85.57% | Ka (binding constant) ([1]; 298 K): 214000 L/mol; Kd ([1]; Ka (binding constant), T = 298 K): 4.67 µM; Kd ([1]; Ka (binding constant), T = 304 K): 4.81 µM; Kd ([1]; Ka (binding constant), T = 310 K): 5.13 µM; Kdapp (apparent dissociation constant of ANS) ([3]; molar ratio 1:1, c(BLG) = 20.0 µM): 5.67 ± 0.31 µM; Kdapp (apparent dissociation constant of ANS) ([3]; molar ratio 2:1, c(BLG) = 20.0 µM): 5.7 ± 0.1 µM; increase of foaming ability (FA) of BLG [4]: 51.32%; effect on emulsifying stability (ES) of BLG [5]: did the opposite; effect on emulsifying ability (EA) of BLG [5]: slightly improved
